SMILES strings stand for the structures.

The subject of one assay is SK-N-SH. The assay can be described thus: Cytotoxicity against human SK-N-SH cells after 24 hrs by MTT assay. The assay is classed as functional, cell-based.
Another assay relates to HepG2. Put plainly: cells. The settings on record: Homo sapiens, HepG2, 24 h.
The test system of the next assay is MCF7. The assay can be described thus: Cytotoxicity against human MCF7 cells after 24 hrs by MTT assay. Format: functional, cell-based. As to conditions: MCF7, 24 h.
Another assay has as its system HeLa. Put plainly: cells. As to conditions: Homo sapiens, 24 h.
The next assay has as its system A549. Put plainly: Cytotoxicity against human A549 cells after 24 hrs by MTT assay. Format: functional, cell-based. The settings on record: A549, 24 h.
The next assay deals with T1, Dihydrofolate reductase (Homo sapiens, UniProt P00374).
T1 sequence (P00374 whole entry): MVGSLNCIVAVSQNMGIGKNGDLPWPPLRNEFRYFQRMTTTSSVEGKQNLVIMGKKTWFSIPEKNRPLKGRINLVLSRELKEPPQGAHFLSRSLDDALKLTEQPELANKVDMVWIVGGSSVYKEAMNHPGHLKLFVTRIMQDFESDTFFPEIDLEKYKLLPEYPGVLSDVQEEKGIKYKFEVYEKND
Put plainly: Inhibition of human DHFR assessed as depletion of NADPH after 30 secs shaking by spectrophotometry.

Description for HeLa: Cytotoxicity against human HeLa cells after 24 hrs by MTT assay
Description for HepG2: Cytotoxicity against human HepG2 cells after 24 hrs by MTT assay

Take `O=c1nc2ccc(Cl)cn2cc1Cc1ccc([N+](=O)[O-])cc1`: the IC50 was 0.94 µM in the assay with SK-N-SH; above 1 mM with HepG2; above 1000 µM in the assay with MCF7; 928 µM in the assay with HeLa; above 1000 µM in the assay on A549.

Turning to `O=c1nc2ccccn2cc1Cc1ccccc1`, the IC50 with SK-N-SH is 95.4 µM; in the assay with HepG2, above 1 mM; in the assay on MCF7, 75.4 µM; in the assay with HeLa, above 1000 µM; with A549, 104 µM.

As for `O=c1nc2ccc(Br)cn2cc1Cc1ccc(Br)cc1`, the IC50 is 0.87 µM with SK-N-SH; above 1 mM with HepG2; 97.2 µM in the assay on MCF7; 931 µM in the assay on HeLa; 102 µM in the assay with A549.

For `CC1(C)OC2O[C@@H](Cc3cn4cc(Cl)ccc4nc3=O)C(OCc3ccccc3)C2O1` (stereo partly specified), the IC50 with SK-N-SH was above 1000 µM; in the assay on HepG2 it was above 1 mM; in the assay with MCF7 it was above 1000 µM; with HeLa it was above 1000 µM; with A549, 182 µM.

As to `O=c1nc2ccccn2cc1Cc1ccc(F)cc1`, the IC50 in the assay on SK-N-SH is 125 µM; in the assay with HepG2, above 1 mM; with MCF7, 200 µM; in the assay with HeLa, 139 µM; in the assay with A549 it was above 1000 µM.

In the case of `COc1ccc(Cc2cn3cc(Br)ccc3nc2=O)cc1`, the 50% inhibitory concentration (IC50) in the assay on SK-N-SH is 0.94 µM; in the assay with HepG2, above 1 mM; with MCF7, above 1000 µM; with HeLa, 928 µM; in the assay on A549, above 1000 µM.

`O=c1nc2ccc(Br)cn2cc1Cc1ccc(Cl)cc1`: the IC50 was 0.94 µM with SK-N-SH; above 1 mM with HepG2; above 1000 µM with MCF7; above 1000 µM in the assay with HeLa; 105 µM in the assay on A549.

In the case of `CC1(C)OC2O[C@@H](Cc3cn4ccccc4nc3=O)C(OCc3ccccc3)C2O1` (stereo partly specified), the IC50 in the assay with SK-N-SH was above 1000 µM; in the assay with HepG2 it was above 1 mM; in the assay with MCF7, above 1000 µM; with HeLa, above 1000 µM; in the assay with A549 it was 199 µM.

With `Nc1cc(Br)cn2cc(Cc3ccc(F)cc3C(F)(F)F)c(=O)nc12`, the IC50 in the assay on SK-N-SH is 133 µM; in the assay on HepG2, above 1 mM; with MCF7 it was 151 µM; in the assay with HeLa, above 1000 µM; in the assay with A549, above 1000 µM.

For `O=c1nc2ccc(Br)cn2cc1Cc1cccc(Oc2nc(Cl)c(Cl)cc2Cl)c1`, the IC50 is 9.24 µM with SK-N-SH; above 1 mM with HepG2; 2.73 µM on Dihydrofolate reductase; 9.77 µM in the assay on MCF7; above 1000 µM in the assay on HeLa; above 1000 µM in the assay on A549.

Regarding `O=c1nc2ccc(Cl)cn2cc1Cc1ccc(Oc2nc(Cl)c(Cl)cc2Cl)cc1`, the IC50 in the assay on SK-N-SH was 8.69 µM; in the assay on HepG2 it was 0.992 mM; in the assay on MCF7 it was 96.9 µM; with HeLa, above 1000 µM; in the assay with A549 it was above 1000 µM.

Regarding `O=c1nc2ccccn2cc1Cc1cccc(Oc2ccccc2)c1`, the IC50 with SK-N-SH was 141 µM; in the assay with HepG2 it was above 1 mM; in the assay on MCF7, 243 µM; with HeLa, above 1000 µM; with A549, above 1000 µM.

With `COc1cccc2c1C(=O)c1c(O)c3c(c(O)c1C2=O)C[C@@](O)(C(=O)CO)C[C@@H]3O[C@H]1C[C@H](N)[C@H](O)[C@H](C)O1` [DOXORUBICIN], the IC50 with SK-N-SH worked out at 10.9 µM; in the assay with HeLa, 1.12 µM; in the assay on A549, 10.6 µM.

As for `O=c1nc2ccccn2cc1Cc1ccc(Br)cc1`, the IC50 was 163 µM with SK-N-SH; above 1 mM in the assay with HepG2; 157 µM in the assay on MCF7; above 1000 µM in the assay on HeLa; above 1000 µM with A549.

As to `O=c1nc2ccc(Br)cn2cc1Cc1ccccc1`, the IC50 with SK-N-SH is 137 µM; in the assay with HepG2, above 1 mM; in the assay on MCF7, above 1000 µM; in the assay on HeLa, 152 µM; in the assay on A549 it was above 1000 µM.

Turning to `O=c1nc2ccc(Cl)cn2cc1Cc1ccc(F)cc1`, the IC50 in the assay with SK-N-SH is 9.86 µM; in the assay on HepG2, above 1 mM; in the assay with MCF7, 10.4 µM; in the assay with HeLa, above 1000 µM; in the assay on A549 it was 98.3 µM.

As for `O=c1nc2ccc(Cl)cn2cc1Cc1ccc(F)cc1C(F)(F)F`, the IC50 was 106 µM with SK-N-SH; above 1 mM with HepG2; 181 µM in the assay on MCF7; above 1000 µM in the assay with HeLa; above 1000 µM in the assay with A549.

In the case of `Nc1cc(Br)cn2cc(Cc3ccccc3)c(=O)nc12`, the concentration for half-maximal inhibition (IC50) was 149 µM with SK-N-SH; above 1 mM in the assay with HepG2; above 1000 µM with MCF7; above 1000 µM in the assay with HeLa; above 1000 µM with A549.

As for `Nc1cccn2cc(Cc3ccc(F)cc3)c(=O)nc12`, the half-inhibitory concentration (IC50) was 126 µM with SK-N-SH; above 1 mM with HepG2; 135 µM in the assay on MCF7; above 1000 µM in the assay with HeLa; above 1000 µM with A549.

Regarding `O=c1nc2ccccn2cc1Cc1ccc(F)cc1C(F)(F)F`, the IC50 is 8.69 µM in the assay with SK-N-SH; 0.804 mM in the assay on HepG2; 3.1 µM on Dihydrofolate reductase; 9.87 µM in the assay on MCF7; 88 µM with HeLa; above 1000 µM in the assay with A549.

Consider `Nc1cccn2cc(Cc3ccccc3)c(=O)nc12`, for which the IC50 in the assay on SK-N-SH came out at 116 µM; in the assay with HepG2, 0.131 mM; on Dihydrofolate reductase, 8.72 µM; in the assay on MCF7, 105 µM; in the assay on HeLa it was 112 µM; in the assay with A549 it was 98 µM.

In the case of `O=C1N=C2C=CC=CN2CC1C(O)c1cccs1` (stereo unspecified), the IC50 was above 1000 µM in the assay with SK-N-SH; above 1 mM in the assay on HepG2; 166 µM in the assay on MCF7; 166 µM with HeLa; 248 µM with A549.

Take `Cc1ccc(Cc2cn3cc(Cl)ccc3nc2=O)cc1`: the 50% inhibitory concentration (IC50) in the assay on SK-N-SH is 0.86 µM; in the assay with HepG2, above 1 mM; in the assay on MCF7 it was above 1000 µM; with HeLa it was above 1000 µM; in the assay on A549 it was above 1000 µM.
